“And” between values parts separate entries of the source, which are not always exact repeats. Equal values may be shown once.

The text below walks through data of paper PMC12557437, “Research towards selective inhibition of the CLK3 kinase” (Beilstein Journal of Organic Chemistry, 2025).

Assay type in all cases: biochemical
The target in assay [1] is Hs_GSK3β (Homo sapiens, UniProt P49841). Kind of assay: primary screening, short panel of mammalian kinases. Particulars: ATP 10 µM, means, n = 2, read-out: Residual kinase activity Hs_GSK3β; for remaining activity at 1 µM: compound 1 μM; for remaining activity at 10 µM: compound 10 μM. From the text: (§1) Our molecules have been submitted first to a primary screening against a panel of eight disease-related kinases: five members of the CMGC (for CDK, MAPK, GSK3, and CLK) group (CDK5/p25, CDK9/CyclinT, GSK3β, CLK1 and DYRK1A), one CAMK (calmodulin/calcium regulated kinase PIM1), one CK1 (the casein kinase CK1ε), and haspin as a […] kinase.
(§2) Figure 4 Primary evaluation of the inhibition of the new quinazolines against a short panel of mammalian kinases. Residual kinase activities are expressed in % of maximal activity, i.e., measured in the absence of inhibitor but with an equivalent dose of DMSO (solvent of the tested compounds). ATP concentration used in the kinase assays was 10 µM (values are means, n = 2). Kinases are from human origin (Homo sapiens) except CLK1 (from Mus musculus) and DYRK1A (from Rattus norvegicus). […]

Assay [2] addresses Hs_CDK5/p25 (Homo sapiens, UniProt Q00535). Described as above. Particulars: ATP 10 µM, means, n = 2, read-out: Residual kinase activity Hs_CDK5/p25; for remaining activity at 1 µM: compound 1 μM; for remaining activity at 10 µM: compound 10 μM.
Source text: as §1, §2

For assay [3], the target named is T1, Hs_HASPIN (Homo sapiens, UniProt Q8TF76).
T1 sequence (Q8TF76 1-798): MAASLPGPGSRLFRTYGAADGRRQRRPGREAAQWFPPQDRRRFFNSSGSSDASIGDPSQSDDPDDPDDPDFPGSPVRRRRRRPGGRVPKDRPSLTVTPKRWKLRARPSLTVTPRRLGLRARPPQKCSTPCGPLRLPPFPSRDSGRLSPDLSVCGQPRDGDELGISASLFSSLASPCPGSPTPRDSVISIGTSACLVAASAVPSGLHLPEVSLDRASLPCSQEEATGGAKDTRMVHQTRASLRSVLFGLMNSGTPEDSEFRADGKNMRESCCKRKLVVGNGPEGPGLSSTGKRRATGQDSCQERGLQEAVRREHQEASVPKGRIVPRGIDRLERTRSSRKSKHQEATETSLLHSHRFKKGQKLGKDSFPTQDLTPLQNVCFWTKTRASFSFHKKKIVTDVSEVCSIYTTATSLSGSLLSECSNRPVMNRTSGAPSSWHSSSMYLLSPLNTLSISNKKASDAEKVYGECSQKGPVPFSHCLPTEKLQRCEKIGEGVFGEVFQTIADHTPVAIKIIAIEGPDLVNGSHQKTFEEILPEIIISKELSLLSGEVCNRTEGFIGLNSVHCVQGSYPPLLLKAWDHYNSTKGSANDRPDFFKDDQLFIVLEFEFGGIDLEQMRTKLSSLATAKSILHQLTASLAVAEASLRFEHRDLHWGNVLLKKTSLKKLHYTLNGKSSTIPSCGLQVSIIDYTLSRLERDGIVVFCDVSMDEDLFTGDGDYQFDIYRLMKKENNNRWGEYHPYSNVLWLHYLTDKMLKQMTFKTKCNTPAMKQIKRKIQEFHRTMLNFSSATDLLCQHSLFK
Described as above. Particulars: ATP 10 µM, means, n = 2, read-out: Residual kinase activity Hs_HASPIN; for remaining activity at 1 µM: compound 1 μM; for remaining activity at 10 µM: compound 10 μM.
Source text: as §1, §2

Assay [4] has as its target Rn_DYRK1A (Rattus norvegicus, UniProt Q63470). The description is as above. The settings on record: ATP 10 µM, means, n = 2, read-out: Residual kinase activity Rn_DYRK1A; for remaining activity at 1 µM: compound 1 μM; for remaining activity at 10 µM: compound 10 μM.
Source text: as §1, §2

The target in assay [5] is Hs_CDK9/CyclinT (Homo sapiens, UniProt P50750). The assay is described as above. The settings on record: ATP 10 µM, means, n = 2, read-out: Residual kinase activity Hs_CDK9/CyclinT; for remaining activity at 1 µM: compound 1 μM; for remaining activity at 10 µM: compound 10 μM.
Source text: as §1, §2

Assay [6] has as its target Hs_CK1ε (Homo sapiens, UniProt P49674). Described as above. The settings on record: ATP 10 µM, means, n = 2, read-out: Residual kinase activity Hs_CK1ε; for remaining activity at 1 µM: compound 1 μM; for remaining activity at 10 µM: compound 10 μM.
Source text: as §1, §2

Assay [7] has as its target Hs_PIM1 (Homo sapiens, UniProt P11309). The description is as above. Particulars: ATP 10 µM, means, n = 2, read-out: Residual kinase activity Hs_PIM1; for remaining activity at 1 µM: compound 1 μM; for remaining activity at 10 µM: compound 10 μM.
Source text: as §1, §2

In assay [8] the target is T2, Mm_CLK1 (Mus musculus, UniProt P22518). The description is as above. The settings on record: for remaining activity at 1 µM: compound 1 μM; for remaining activity at 1 µM / remaining activity at 10 µM: ATP 10 µM, means, n = 2, read-out: Residual kinase activity Mm_CLK1; for remaining activity at 10 µM: compound 10 μM; for activity against CLK1 in primary screening: 1 and 10 µM.
Source text: as §1, §2

The target in assay [9] is Mm_CLK4 (Mus musculus, UniProt O35493). Kind of assay: radiometric γ33P-ATP kinase assay (Eurofins). Particulars: for IC50: 15 µM ATP, dose-response, points in duplicate; for Mm_CLK3/Mm_CLK4: ratio of IC50 values. The procedure:
(§3) The results are reported in Table 2 and in Supporting Information File 1.
(§4) 2- Kinase inhibition studies
(§5) Kinase enzymatic activities were assayed using both luminescent ADP detection assay
(§6) (ADP-GloTM assay kit, Promega, Madison, WI) or radiometric kinase assay. These
(§7) assays were performed using the protocols described in our previous publication. […]
(§8) 1.Brahmaiah, D.; Kanaka Durga Bhavani, A.; Aparna, P.; Sampath Kumar, N.; Solhi,
(§9) H.; Le Guevel, R.; Baratte, B.; Ruchaud, S.; Bach, S.; Singh Jadav, S.; Raji Reddy, C.;
(§10) Roisnel, T.; Mosset, P.; Levoin, N.; Grée, R. Bioorg.
(§11) R.; Baratte, B.; Robert, T.; Ruchaud, S.; Bach, S.; Jadav, S. S.; Reddy, C. […]

Assay [10] has as its target Mm_CLK2 (Mus musculus, UniProt O35491). Description: radiometric γ33P-ATP kinase assay (Eurofins). Particulars: for IC50: 15 µM ATP, dose-response, points in duplicate; for Mm_CLK3/Mm_CLK2: ratio of IC50 values. The protocol: as §3, §4, §5, §6, §7, §8, §9, §10, §11
Assay [11] addresses T2, Mm_CLK1. Description: radiometric γ33P-ATP kinase assay (Eurofins). The settings on record: for IC50: 15 µM ATP, dose-response, points in duplicate; for Mm_CLK3/Mm_CLK1: ratio of IC50 values. The procedure: as §3, §4, §5, §6, §7, §8, §9, §10, §11
The target in assay [12] is Mm_CLK3 (Mus musculus, UniProt O35492). Description: radiometric γ33P-ATP kinase assay (Eurofins). The settings on record: 15 µM ATP; dose-response, points in duplicate. The procedure: as §3, §4, §5, §6, §7, §8, §9, §10
R.; Baratte, B.; Robert, T.; Ruchaud, S.; Bach, S.; Jadav, S. S.; Reddy, C. R.; Mosset,
P.; Gouault, N.; Levoin, N.; Grée, R. Molecules 2022, 27, 6149. […]

Hs_CK1ε, sequence (P49674 whole entry): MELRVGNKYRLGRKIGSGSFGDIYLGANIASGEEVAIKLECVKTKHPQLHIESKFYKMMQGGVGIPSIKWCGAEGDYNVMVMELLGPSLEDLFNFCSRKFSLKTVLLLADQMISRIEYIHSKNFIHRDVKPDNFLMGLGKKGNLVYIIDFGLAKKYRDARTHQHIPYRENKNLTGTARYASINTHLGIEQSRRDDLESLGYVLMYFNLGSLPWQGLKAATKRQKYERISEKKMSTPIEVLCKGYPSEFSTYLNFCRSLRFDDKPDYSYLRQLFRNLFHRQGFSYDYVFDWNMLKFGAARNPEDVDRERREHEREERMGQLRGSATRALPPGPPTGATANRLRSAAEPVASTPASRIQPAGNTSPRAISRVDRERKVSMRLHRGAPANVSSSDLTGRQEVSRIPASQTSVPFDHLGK
Mm_CLK3, sequence (O35492 whole entry): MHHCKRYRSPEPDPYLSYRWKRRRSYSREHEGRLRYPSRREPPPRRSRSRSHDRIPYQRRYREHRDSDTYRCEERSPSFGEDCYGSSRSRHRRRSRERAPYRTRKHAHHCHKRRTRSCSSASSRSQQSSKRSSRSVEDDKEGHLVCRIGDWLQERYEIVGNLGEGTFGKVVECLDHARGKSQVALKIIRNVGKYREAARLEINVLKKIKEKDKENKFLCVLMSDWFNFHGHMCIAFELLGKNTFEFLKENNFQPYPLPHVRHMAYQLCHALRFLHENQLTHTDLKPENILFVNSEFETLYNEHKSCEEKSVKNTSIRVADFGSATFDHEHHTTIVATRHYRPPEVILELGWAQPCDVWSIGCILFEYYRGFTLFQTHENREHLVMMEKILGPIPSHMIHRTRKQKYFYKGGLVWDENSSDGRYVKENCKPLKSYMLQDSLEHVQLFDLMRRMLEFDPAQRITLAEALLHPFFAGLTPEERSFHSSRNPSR
Hs_CDK9/CyclinT, sequence (P50750 whole entry): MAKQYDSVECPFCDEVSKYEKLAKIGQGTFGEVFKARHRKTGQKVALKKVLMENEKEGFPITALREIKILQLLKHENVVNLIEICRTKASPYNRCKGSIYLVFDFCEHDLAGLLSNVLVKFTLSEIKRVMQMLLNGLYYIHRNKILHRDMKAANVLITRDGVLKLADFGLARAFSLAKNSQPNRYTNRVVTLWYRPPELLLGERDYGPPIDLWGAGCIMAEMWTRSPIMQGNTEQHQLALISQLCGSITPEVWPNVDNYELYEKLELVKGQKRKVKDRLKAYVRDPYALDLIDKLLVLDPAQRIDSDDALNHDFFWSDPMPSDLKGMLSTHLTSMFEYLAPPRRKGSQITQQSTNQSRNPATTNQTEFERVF
Hs_CDK9/CyclinT, sequence (O60563 whole entry partner): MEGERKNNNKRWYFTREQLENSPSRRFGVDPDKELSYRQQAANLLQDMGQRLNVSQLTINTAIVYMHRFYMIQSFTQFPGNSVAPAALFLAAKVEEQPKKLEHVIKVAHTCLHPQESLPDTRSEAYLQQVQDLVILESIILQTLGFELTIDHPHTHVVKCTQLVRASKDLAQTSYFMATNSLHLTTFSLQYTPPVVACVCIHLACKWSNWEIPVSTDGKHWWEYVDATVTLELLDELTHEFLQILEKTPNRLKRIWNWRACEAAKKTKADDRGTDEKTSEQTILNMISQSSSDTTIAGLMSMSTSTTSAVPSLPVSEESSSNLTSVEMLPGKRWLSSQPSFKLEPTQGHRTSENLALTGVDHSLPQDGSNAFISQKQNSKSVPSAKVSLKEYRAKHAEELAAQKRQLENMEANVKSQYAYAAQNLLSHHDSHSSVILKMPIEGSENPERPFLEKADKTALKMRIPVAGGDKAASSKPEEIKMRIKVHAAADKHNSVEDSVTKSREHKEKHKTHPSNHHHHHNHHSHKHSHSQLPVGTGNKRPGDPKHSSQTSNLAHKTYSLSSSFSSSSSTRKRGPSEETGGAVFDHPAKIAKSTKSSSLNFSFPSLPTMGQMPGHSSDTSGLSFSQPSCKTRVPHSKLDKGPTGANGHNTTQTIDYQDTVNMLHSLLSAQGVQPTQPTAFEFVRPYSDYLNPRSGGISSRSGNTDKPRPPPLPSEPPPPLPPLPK
Mm_CLK4, sequence (O35493 whole entry): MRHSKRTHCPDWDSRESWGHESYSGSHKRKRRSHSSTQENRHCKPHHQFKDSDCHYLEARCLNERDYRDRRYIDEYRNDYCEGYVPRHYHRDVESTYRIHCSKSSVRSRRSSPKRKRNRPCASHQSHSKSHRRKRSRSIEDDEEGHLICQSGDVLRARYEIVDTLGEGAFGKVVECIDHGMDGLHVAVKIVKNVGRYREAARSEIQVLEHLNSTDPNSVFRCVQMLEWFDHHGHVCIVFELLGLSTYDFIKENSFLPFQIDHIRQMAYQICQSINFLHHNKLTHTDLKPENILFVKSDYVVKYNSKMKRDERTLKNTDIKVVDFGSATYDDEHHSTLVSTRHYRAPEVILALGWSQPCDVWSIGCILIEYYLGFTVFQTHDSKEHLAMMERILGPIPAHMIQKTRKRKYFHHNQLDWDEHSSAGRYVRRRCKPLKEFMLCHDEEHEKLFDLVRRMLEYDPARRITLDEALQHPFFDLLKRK
Hs_GSK3β, sequence (P49841 whole entry): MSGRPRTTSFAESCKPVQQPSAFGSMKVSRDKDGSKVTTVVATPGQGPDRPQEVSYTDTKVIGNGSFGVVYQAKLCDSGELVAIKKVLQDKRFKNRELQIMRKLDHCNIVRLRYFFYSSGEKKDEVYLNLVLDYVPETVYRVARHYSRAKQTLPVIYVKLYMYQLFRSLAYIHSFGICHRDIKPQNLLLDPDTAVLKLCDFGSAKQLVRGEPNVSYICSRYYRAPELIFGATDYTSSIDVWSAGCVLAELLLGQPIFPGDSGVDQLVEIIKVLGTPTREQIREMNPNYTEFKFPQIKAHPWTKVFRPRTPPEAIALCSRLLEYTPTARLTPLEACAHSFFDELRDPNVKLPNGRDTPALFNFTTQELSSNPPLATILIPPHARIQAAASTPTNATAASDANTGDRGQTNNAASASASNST
Mm_CLK2, sequence (O35491 whole entry): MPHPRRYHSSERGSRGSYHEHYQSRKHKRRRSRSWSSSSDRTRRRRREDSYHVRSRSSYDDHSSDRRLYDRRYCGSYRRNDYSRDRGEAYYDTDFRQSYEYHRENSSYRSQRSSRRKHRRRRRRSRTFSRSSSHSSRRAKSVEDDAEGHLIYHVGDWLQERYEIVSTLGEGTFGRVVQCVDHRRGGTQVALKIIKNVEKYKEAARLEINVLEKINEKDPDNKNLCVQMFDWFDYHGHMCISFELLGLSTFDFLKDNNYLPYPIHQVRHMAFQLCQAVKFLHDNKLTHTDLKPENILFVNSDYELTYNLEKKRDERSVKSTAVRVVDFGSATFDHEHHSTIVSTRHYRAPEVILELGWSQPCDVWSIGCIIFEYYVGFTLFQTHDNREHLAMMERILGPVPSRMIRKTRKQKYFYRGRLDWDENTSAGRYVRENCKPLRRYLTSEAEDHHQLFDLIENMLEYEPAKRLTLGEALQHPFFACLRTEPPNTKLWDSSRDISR
Hs_CDK5/p25, sequence (Q00535 whole entry): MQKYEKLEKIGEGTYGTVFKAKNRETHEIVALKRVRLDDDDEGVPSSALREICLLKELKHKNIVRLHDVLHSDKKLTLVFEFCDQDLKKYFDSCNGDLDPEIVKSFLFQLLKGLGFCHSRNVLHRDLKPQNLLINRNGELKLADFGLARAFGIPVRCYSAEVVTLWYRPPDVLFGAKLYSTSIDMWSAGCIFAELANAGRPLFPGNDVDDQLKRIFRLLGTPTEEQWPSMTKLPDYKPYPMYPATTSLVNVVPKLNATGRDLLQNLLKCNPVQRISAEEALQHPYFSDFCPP
Hs_CDK5/p25, sequence (Q15078 99-307 partner limits assumed): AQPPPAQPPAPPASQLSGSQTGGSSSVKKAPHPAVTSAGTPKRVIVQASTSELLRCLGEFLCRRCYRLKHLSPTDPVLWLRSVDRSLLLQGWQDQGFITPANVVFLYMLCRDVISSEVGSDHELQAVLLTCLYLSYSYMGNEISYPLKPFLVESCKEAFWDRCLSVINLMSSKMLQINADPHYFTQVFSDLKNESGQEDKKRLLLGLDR
T2 sequence (P22518 whole entry): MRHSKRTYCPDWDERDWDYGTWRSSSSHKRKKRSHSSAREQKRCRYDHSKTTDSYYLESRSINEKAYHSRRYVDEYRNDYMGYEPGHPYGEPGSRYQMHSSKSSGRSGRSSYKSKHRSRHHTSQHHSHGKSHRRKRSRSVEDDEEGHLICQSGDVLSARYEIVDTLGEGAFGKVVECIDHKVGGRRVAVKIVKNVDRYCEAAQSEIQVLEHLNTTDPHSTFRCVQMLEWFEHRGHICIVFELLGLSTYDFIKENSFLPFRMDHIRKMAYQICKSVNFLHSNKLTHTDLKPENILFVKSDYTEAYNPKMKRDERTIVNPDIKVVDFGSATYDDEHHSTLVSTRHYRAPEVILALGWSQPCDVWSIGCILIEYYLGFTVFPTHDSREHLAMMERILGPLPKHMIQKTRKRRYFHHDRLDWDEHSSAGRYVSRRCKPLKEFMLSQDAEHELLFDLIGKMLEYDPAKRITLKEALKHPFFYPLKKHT
Hs_PIM1, sequence (P11309 whole entry): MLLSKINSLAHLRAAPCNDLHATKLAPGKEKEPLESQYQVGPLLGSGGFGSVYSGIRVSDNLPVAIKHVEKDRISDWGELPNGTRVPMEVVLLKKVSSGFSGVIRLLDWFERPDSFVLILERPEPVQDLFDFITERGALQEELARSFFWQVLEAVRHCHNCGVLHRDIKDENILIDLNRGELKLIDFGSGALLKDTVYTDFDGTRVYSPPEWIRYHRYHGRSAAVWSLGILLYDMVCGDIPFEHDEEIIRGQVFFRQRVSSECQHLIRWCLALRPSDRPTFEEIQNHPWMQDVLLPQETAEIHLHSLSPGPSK

Consider `COC(=O)c1ccc(-c2cccc(Nc3ncc4cccc(OCc5cn(-c6ccc(C)cc6[N+](=O)[O-])nn5)c4n3)c2)cc1` [Compound 9a], for which the remaining activity at 1 µM in assay [1] was 70%; in [2] it was 70%; in assay [3] it was 95%; in assay [4] it was at least 100%; in assay [5], 98%; in [6], 78%. The remaining activity at 1 µM in [7] is at least 100%; in [8], 66%. Also, the remaining activity at 10 µM is 53% in assay [1]; 84% in assay [2]; at least 100% in assay [3]; at least 100% in assay [4]; 95% in assay [5]; 95% in assay [6]. In addition, the remaining activity at 10 µM in [7] was determined as 90%; in assay [8], 58%.

As to `COC(=O)c1ccc(-c2cc(Cl)cc(Nc3ncc4cccc(OCc5cn(-c6ccc(C)cc6[N+](=O)[O-])nn5)c4n3)c2)cc1` [Compound 9b], the remaining activity at 1 µM is 90% in [1]; 74% in assay [2]; 65% in assay [3]; at least 100% in assay [4]; 96% in [5]; at least 100% in [6]. Moreover, the remaining activity at 1 µM in assay [7] is at least 100%; in assay [8] it was 60%. In addition, the remaining activity at 10 µM in assay [1] was 86%; in [2] it was at least 100%; in assay [3] it was 43%; in assay [4] it was at least 100%; in [5], 91%; in [6], at least 100%. Also, the remaining activity at 10 µM stood at 96% in assay [7] and 66% in assay [8].

The IC50 is the concentration needed to halve the response being measured. On to `Cc1ccc(-n2cc(COc3cccc4cnc(Nc5cccc(-c6ccc(C(=O)O)cc6)c5)nc34)nn2)c([N+](=O)[O-])c1` [Compound 10a], for which the half-inhibitory concentration (IC50) was 762 nM in assay [9]; 844 nM in assay [10]; 891 nM in assay [11]; 3700 nM and 3730 nM in assay [12]. The Mm_CLK3/Mm_CLK4 in assay [9] stood at 4.90. Besides, in [10], the Mm_CLK3/Mm_CLK2 worked out at 4.42. Moreover, in assay [11], the Mm_CLK3/Mm_CLK1 amounted to 4.18. Moreover, the remaining activity at 1 µM in assay [1] is 82%; in assay [2] it was 61%; in assay [3], 93%; in assay [4], at least 100%; in assay [5], 84%; in [6] it was 93%. In addition, the results for the remaining activity at 1 µM in [7] and in [8] were 80% and 15%, respectively. For the same compound, the remaining activity at 10 µM in assay [1] turned out to be 32%; in assay [2], 70%; in assay [3], 92%; in assay [4] it was 84%; in assay [5] it was 38%; in assay [6], 84%. The remaining activity at 10 µM is at least 100% in [7] and 0% in assay [8]. In addition, in [8], the “activity against CLK1 in primary screening” value is given as “significant activity against CLK1”.

With `Cc1ccc(-n2cc(COc3cccc4cnc(Nc5cc(Cl)cc(-c6ccc(C(=O)O)cc6)c5)nc34)nn2)c([N+](=O)[O-])c1` [Compound 10b], the IC50 in assay [9] came out at 145 nM; in [10], 118 nM; in assay [11], 213 nM; in [12] it was 861 nM. Also, the Mm_CLK3/Mm_CLK4 in assay [9] is given as 5.94. The Mm_CLK3/Mm_CLK2 in assay [10] worked out at 7.29. For the same compound, in assay [11], the Mm_CLK3/Mm_CLK1 is given as 4.04. Further, the remaining activity at 1 µM in assay [1] is 92%; in [2], 53%; in [3], 85%; in assay [4] it was 82%; in assay [5], 99%; in assay [6], at least 100%. Also, the remaining activity at 1 µM in assay [7] is 84%; in [8] it was 38%. Moreover, the remaining activity at 10 µM in assay [1] is 56%; in assay [2], 43%; in assay [3], 92%; in assay [4], 94%; in assay [5] it was 66%; in assay [6] it was 92%. Besides, the remaining activity at 10 µM is at least 100% in [7] and 8% in assay [8]. The “activity against CLK1 in primary screening” value in assay [8] is listed as “significant activity against CLK1”.

Take `COC(=O)c1cccc(-c2cc(Cl)cc(Nc3ncc4cccc(OCc5cn(-c6ccc(C)cc6[N+](=O)[O-])nn5)c4n3)c2)c1` [Compound 12b]: the remaining activity at 1 µM is 97% in [1]; 85% in assay [2]; 47% in assay [3]; at least 100% in [4]; 94% in assay [5]; at least 100% in [6]. In addition, the remaining activity at 1 µM in assay [7] was 90%; in assay [8], 54%. In addition, the remaining activity at 10 µM is 62% in assay [1]; 92% in [2]; 39% in assay [3]; at least 100% in [4]; 83% in assay [5]; at least 100% in assay [6]. Further, the remaining activity at 10 µM amounted to 98% in [7] and 48% in [8].
